The results in this text go back to patent publication US7335723B2, “Melanin-concentrating hormone antagonists” (priority 2001, dated 2008).

Where a SMILES comes first, the peptide text is derived from it. Bridges are numbered along the chain shown (N, C = ends). [ ]: non-standard residue; d: D form. The star is where a group is joined. Pentanoyl(5-guanidino) = NC(N)=NCCCCC(=O)*; dNle = CCCC[C@@H](N)C(=O)O; Nle = CCCC[C@H](N)C(=O)O; Abu = CC[C@H](N)C(=O)O; Ava = NCCCCC(=O)O; βAla = NCCC(=O)O

Test [1] concerns the target human MCH-2R (Homo sapiens, UniProt Q969V1). Description: Aequorin bioluminescence functional assay, MCH-2R agonist activity. As to conditions: for MCH-2R Agonist Activation %: 293-AEQ17 cells expressing human MCH-2R.
Test [2] concerns the target rat MCH-1R (Rattus norvegicus, UniProt P97639). The experiment in a line: Aequorin bioluminescence functional assay, MCH-1R agonist activity. The following applies: for MCH-1R Agonist Activation %: 293-AEQ17 cells expressing rat MCH-1R.
Test [3] addresses human MCH-1R (Homo sapiens, UniProt Q99705). Description: MCH-1R binding assay, inhibition of [125I]-human MCH binding to membranes.
Method: Cell membranes were prepared on ice. Each T-75 flask was rinsed twice with 10 ml of Enzyme-free Cell Dissociation Buffer (Specialty Media, Lavallette, N.J.), and the cell monolayer was detached in an additional 10 ml of Enzyme-free Cell Dissociation Buffer by incubation at room temperature for 10 minutes. Dissociated cells were centrifuged (500×g for 10 minutes at 4° C.), resuspended in 5 ml homogenization buffer (10 mM Tris-HCl, pH 7.4, 0.01 mM Pefabloc, 10 μM phosphoramidon, 40 μg/ml bacitracin) and then homogenized using a glass homogenizer (10-15 strokes). The homogenate was centrifuged for 10 minutes (1,000×g at 4° C.). The resulting supernatant was then centrifuged at 38,700×g for 15 minutes at 4° C. Pelleted membranes were resuspended (passed through 25 gauge needle 5 times), snap-frozen on liquid nitrogen, and stored at −80° C. until use.
Bound radioligand was separated by rapid vacuum filtration (Packard Filtermate 96-well cell harvester) through GF/C filters pretreated for 1 hour with 1% polyethylenimine. After application of the membrane suspension to the filter, the filters were washed 3 times with 3 ml each of ice-cold 50 mM Tris-HCl, pH 7.4, 10 mM MgCl2, 2 mM EDTA, 0.04% Tween 20 and the bound radioactivity on the filters was quantitated by scintillation counting (TopCount device).
For the SPA-based assay, WGA-PVT beads (NEN Life Sciences Products) were resuspended in Dulbecco's PBS with calcium and magnesium (500 mg beads in 4 ml PBS). […] The suspension was mixed gently for 20 minutes, 12.3 ml of assay buffer and protease inhibitors were added (final concentration given): 2 μg/ml leupeptin, 10 μM phosphoramidon, 40 μg/ml bacitracin, 5 μg/ml aprotinin, 0.1 mM Pefabloc.
Coated beads were kept on ice until use.

Chain of human MCH-2R (Q969V1 whole entry): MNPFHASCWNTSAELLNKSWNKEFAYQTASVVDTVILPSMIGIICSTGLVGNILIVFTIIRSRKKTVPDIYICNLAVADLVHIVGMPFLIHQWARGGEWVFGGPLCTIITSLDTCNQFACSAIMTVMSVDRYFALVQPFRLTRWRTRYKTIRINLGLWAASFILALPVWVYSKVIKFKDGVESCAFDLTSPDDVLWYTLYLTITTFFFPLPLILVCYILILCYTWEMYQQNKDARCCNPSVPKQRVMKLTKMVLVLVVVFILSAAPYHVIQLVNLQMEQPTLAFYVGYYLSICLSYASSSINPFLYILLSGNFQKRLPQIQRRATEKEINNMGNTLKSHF
Chain of human MCH-1R (Q99705 whole entry): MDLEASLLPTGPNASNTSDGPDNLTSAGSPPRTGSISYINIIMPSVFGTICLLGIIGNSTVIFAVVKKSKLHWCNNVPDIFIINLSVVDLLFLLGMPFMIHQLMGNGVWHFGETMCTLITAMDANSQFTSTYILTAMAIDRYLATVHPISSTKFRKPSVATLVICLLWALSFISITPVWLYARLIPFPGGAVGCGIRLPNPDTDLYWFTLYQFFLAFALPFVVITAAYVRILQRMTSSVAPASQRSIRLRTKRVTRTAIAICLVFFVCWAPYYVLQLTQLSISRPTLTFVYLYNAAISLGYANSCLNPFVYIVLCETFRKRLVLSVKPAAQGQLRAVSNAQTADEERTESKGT
Chain of rat MCH-1R (P97639 whole entry): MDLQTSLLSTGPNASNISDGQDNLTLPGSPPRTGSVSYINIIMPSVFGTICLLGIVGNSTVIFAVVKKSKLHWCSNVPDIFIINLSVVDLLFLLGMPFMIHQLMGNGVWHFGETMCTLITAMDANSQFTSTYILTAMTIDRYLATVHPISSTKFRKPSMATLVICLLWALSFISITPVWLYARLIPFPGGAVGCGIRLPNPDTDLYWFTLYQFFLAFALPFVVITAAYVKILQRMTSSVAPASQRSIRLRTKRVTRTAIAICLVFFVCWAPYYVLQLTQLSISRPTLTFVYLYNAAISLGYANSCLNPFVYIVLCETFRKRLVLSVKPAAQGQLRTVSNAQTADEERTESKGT

With `CSCC[C@@H]1NC(=O)[C@H](NC(=O)CCCCNC(=N)N)CSSC[C@@H](C(N)=O)NC(=O)CCCCNC(=O)CCCCNC(=O)[C@H](Cc2ccc(O)cc2)NC(=O)[C@H](C(C)C)NC(=O)[C@H](CCCNC(=N)N)NC(=O)CNC(=O)[C@H](CC(C)C)NC1=O` [SEQ. ID. NO. 25], in test [1], the EC50 was greater than 10 µM and the “MCH-2R Agonist Activation %” value was 25%. For the same compound, in test [2], the EC50 was greater than 10 µM and the “MCH-1R Agonist Activation %” value amounted to 0.1%. The compound further returned an IC50 in test [3] of 0.066 µM.
Turning to `CC(C)[C@@H]1NC(=O)[C@H](CCCNC(=N)N)NC(=O)CCCCNC(=O)CCCCNC(=O)CCCCNC(=O)[C@@H](NC(=O)CCCCNC(=N)N)CSSC[C@@H](C(N)=O)NC(=O)CCCCNC(=O)CCCCNC(=O)[C@H](Cc2ccc(O)cc2)NC1=O` [SEQ. ID. NO. 36], in test [1], the EC50 is greater than 10 µM and the “MCH-2R Agonist Activation %” value came to 24%. In test [2], the EC50 is greater than 10 µM and the “MCH-1R Agonist Activation %” value is listed as 0.1%. This compound also displayed an IC50 in test [3] greater than 1 µM.
`C[C@@H]1NC(=O)[C@@H](NC(=O)CCCCNC(=N)N)CSSC[C@@H](C(=O)O)NC(=O)CCCCNC(=O)CCCCNC(=O)[C@H](Cc2ccc(O)cc2)NC(=O)[C@H](C)NC(=O)[C@H](CCCNC(=N)N)NC(=O)CCCCNC(=O)CCCCNC1=O` [SEQ. ID. NO. 34] ({Pentanoyl(5-guanidino)}-CA[Ava][Ava]RAY[Ava][Ava]C-OH; disulfide 1-10): in test [1], the EC50 is greater than 10 µM and the “MCH-2R Agonist Activation %” value was 28%. In test [2], the EC50 is greater than 10 µM and the “MCH-1R Agonist Activation %” value is 0.1%. The same compound registered an IC50 in test [3] greater than 1 µM.
As for `CSCC[C@@H]1NC(=O)[C@@H](NC(=O)CCCCNC(=N)N)CSSC[C@@H](C(N)=O)NC(=O)CNC(=O)[C@H](Cc2ccc(O)cc2)NC(=O)[C@H](C(C)C)NC(=O)[C@H](CCCNC(=N)N)NC(=O)CCCCNC(=O)CCCCNC1=O` [SEQ. ID. NO. 6] ({Pentanoyl(5-guanidino)}-CM[Ava][Ava]RVYGC-NH2; disulfide 1-9), in test [1], the EC50 was greater than 10 µM and the “MCH-2R Agonist Activation %” value is recorded as 25%. In test [2], the EC50 is greater than 10 µM and the “MCH-1R Agonist Activation %” value is 0.1%. The IC50 in test [3] is greater than 1 µM.
As for `CCCC[C@H]1NC(=O)[C@H](CC(C)C)NC(=O)[C@H](CCSC)NC(=O)[C@@H](NC(=O)[C@H](CCCNC(=N)N)NC(C)=O)CSSC[C@@H](C(N)=O)NC(=O)CCCCNC(=O)CCCCNC(=O)[C@H](Cc2ccc(O)cc2)NC(=O)[C@H](C(C)C)NC(=O)[C@H](CCCNC(=N)N)NC1=O` [SEQ. ID. NO. 26] (Ac-RCML[dNle]RVY[Ava][Ava]C-NH2; disulfide 2-11; C-terminus assumed), in test [1], the EC50 was greater than 10 µM and the “MCH-2R Agonist Activation %” value is reported as 91%. Besides, in test [2], the EC50 is 0.544 µM and the “MCH-1R Agonist Activation %” value is reported as 43%. In test [3], this compound had an IC50 of 0.223 µM.
The like results for `CC[C@@H]1NC(=O)[C@@H](NC(=O)CCCCNC(=N)N)CSSC[C@@H](C(N)=O)NC(=O)CCCCNC(=O)CCCCNC(=O)[C@H](Cc2ccc(O)cc2)NC(=O)[C@H](C(C)C)NC(=O)[C@H](CCCNC(=N)N)NC(=O)CNC(=O)[C@H](CC(C)C)NC1=O` [SEQ. ID. NO. 17] ({Pentanoyl(5-guanidino)}-C[Abu]LGRVY[Ava][Ava]C-NH2; disulfide 1-10; C-terminus assumed) were, in that order, greater than 10 µM, 7%, greater than 10 µM, 3% and 0.83 µM.
As to `CSCC[C@@H]1NC(=O)[C@H](NC(=O)[C@H](CCCNC(=N)N)NC(C)=O)CSSC[C@@H](C(N)=O)NC(=O)CCCCNC(=O)CCCCNC(=O)[C@H](Cc2ccc(O)cc2)NC(=O)[C@H](C(C)C)NC(=O)[C@H](CCCNC(=N)N)NC(=O)CNC(=O)[C@H](CC(C)C)NC1=O` [SEQ. ID. NO. 24] (Ac-R[dC]MLGRVY[Ava][Ava]C-NH2; disulfide 2-11; C-terminus assumed), in test [1], the 50% effective concentration (EC50) was greater than 10 µM and the “MCH-2R Agonist Activation %” value was found to be 17%. Also, in test [2], the EC50 was greater than 10 µM and the “MCH-1R Agonist Activation %” value is reported as 3%. Besides, the IC50 in test [3] was 0.35 µM.
Consider `CSCC[C@@H]1NC(=O)[C@@H](NC(=O)[C@@H](CCCNC(=N)N)NC(C)=O)CSSC[C@@H](C(N)=O)NC(=O)CCCCNC(=O)CCCCNC(=O)[C@H](Cc2ccc(O)cc2)NC(=O)[C@H](C(C)C)NC(=O)[C@H](CCCNC(=N)N)NC(=O)CNC(=O)[C@H](CC(C)C)NC1=O` [SEQ. ID. NO. 10] (Ac-[dR]CMLGRVY[Ava][Ava]C-NH2; disulfide 2-11 (inferred); C-terminus assumed), for which, in test [1], the EC50 was greater than 10 µM and the “MCH-2R Agonist Activation %” value was 18%. In test [2], the EC50 is 1.3 µM and the “MCH-1R Agonist Activation %” value is listed as 28%. The compound also showed an IC50 in test [3] of 0.0195 µM.
In the case of `CSCC[C@@H]1NC(=O)[C@@H](NC(=O)[C@H](CCCNC(=N)N)NC(C)=O)CSSC[C@@H](C(N)=O)NC(=O)[C@@H]2CCCN2C(=O)[C@H](CCCNC(=N)N)NC(=O)[C@H](Cc2ccc(O)cc2)NC(=O)[C@H](C(C)C)NC(=O)[C@H](CCCNC(=N)N)NC(=O)CNC(=O)[C@H](CC(C)C)NC1=O` [SEQ. ID. NO. 2], in test [2], the midpoint of the response, the EC50, lay at 0.02 µM and the “MCH-1R Agonist Activation %” value is given as 99%.
For the compound `CSCC[C@@H]1NC(=O)[C@@H](NC(=O)[C@H](CCCNC(=N)N)NC(C)=O)CSSC[C@@H](C(N)=O)NC(=O)CCNC(=O)CCNC(=O)[C@H](Cc2ccc(O)cc2)NC(=O)[C@H](C(C)C)NC(=O)[C@H](CCCNC(=N)N)NC(=O)CCNC(=O)CCNC1=O` [SEQ. ID. NO. 31] (Ac-RCM[βAla][βAla]RVY[βAla][βAla]C-NH2; disulfide 2-11), in test [1], the EC50 is greater than 10 µM and the “MCH-2R Agonist Activation %” value was 6%. Further, in test [2], the EC50 was greater than 10 µM and the “MCH-1R Agonist Activation %” value turned out to be 3%. Moreover, in test [3] (@ 10 (concentration unit not given), in the IC50 (nM) column), the “MCH-1R Binding, % @ concentration” value is given as 76% @ 10.
Turning to `CSCC[C@@H]1NC(=O)[C@@H](NC(=O)CCCCNC(=N)N)CSSC[C@@H](C(N)=O)NC(=O)[C@@H]2CCCN2C(=O)[C@H](CCCNC(=N)N)NC(=O)[C@H](Cc2ccc(O)cc2)NC(=O)[C@H](C(C)C)NC(=O)[C@H](CCCNC(=N)N)NC(=O)CCCCNC(=O)CCCCNC1=O` [SEQ. ID. NO. 5] ({Pentanoyl(5-guanidino)}-CM[Ava][Ava]RVYRPC-NH2; disulfide 1-10 (inferred); C-terminus assumed), in test [1], the EC50 was greater than 10 µM and the “MCH-2R Agonist Activation %” value came out at 31%. In test [2], a half-maximal response (EC50) required 0.38 µM and the “MCH-1R Agonist Activation %” value came out at 10%. In test [3], this compound displayed an IC50 of 0.0063 µM.
`CSCC[C@@H]1NC(=O)[C@@H](NC(=O)CCCCNC(=N)N)CSSC[C@@H](C(N)=O)NC(=O)CCCCNC(=O)CCCCNC(=O)[C@H](Cc2ccc(O)cc2)NC(=O)[C@H](C(C)C)NC(=O)[C@H](CCCNC(=N)N)NC(=O)CNC1=O` [SEQ. ID. NO. 23] ({Pentanoyl(5-guanidino)}-CMGRVY[Ava][Ava]C-NH2; disulfide 1-9): in test [1], the EC50 was greater than 10 µM and the “MCH-2R Agonist Activation %” value is 26%. In test [2], the EC50 was greater than 10 µM and the “MCH-1R Agonist Activation %” value worked out at 0.1%. In test [3], this compound yielded an IC50 greater than 1 µM.
Consider `CCCC[C@@H]1NC(=O)[C@@H](NC(=O)CCCCNC(=N)N)CSSC[C@@H](C(=O)O)NC(=O)CCCCNC(=O)CCCCNC(=O)[C@H](Cc2ccc(O)cc2)NC(=O)[C@H](C)NC(=O)[C@H](CCCNC(=N)N)NC(=O)CCCCNC(=O)CCCCNC1=O` [SEQ. ID. NO. 35] ({Pentanoyl(5-guanidino)}-C[Nle][Ava][Ava]RAY[Ava][Ava]C-OH; disulfide 1-10), for which, in test [1], the EC50 was greater than 10 µM and the “MCH-2R Agonist Activation %” value stood at 25%. In test [2], the EC50 was greater than 10 µM and the “MCH-1R Agonist Activation %” value was 0.1%. The compound further gave an IC50 in test [3] greater than 1 µM.
Take `CSCC[C@@H]1NC(=O)[C@@H](NC(=O)[C@@H](CCCNC(=N)N)NC(C)=O)CSSC[C@@H](C(N)=O)NC(=O)[C@@H]2CCCN2C(=O)[C@H](CCCNC(=N)N)NC(=O)[C@H](Cc2ccc(O)cc2)NC(=O)[C@H](C(C)C)NC(=O)[C@H](CCCNC(=N)N)NC(=O)CCCCNC(=O)CCCCNC1=O` [SEQ. ID. NO. 4] (Ac-[dR]CM[Ava][Ava]RVYRPC-NH2; disulfide 2-11 (inferred); C-terminus assumed): in test [1], the EC50 is greater than 10 µM and the “MCH-2R Agonist Activation %” value amounted to 7%. Moreover, in test [2], the EC50 is 1.08 µM and the “MCH-1R Agonist Activation %” value is on record as 72%. The compound also had an IC50 in test [3] of 0.0037 µM.
Take `CSCC[C@@H]1NC(=O)[C@@H](NC(=O)[C@H](CCCNC(=N)N)NC(=O)[C@H](CC(C)C)NC(=O)[C@H](CCSC)NC(=O)[C@H](CC(=O)O)NC(=O)[C@H](Cc2ccccc2)NC(=O)[C@@H](N)CC(=O)O)CSSC[C@@H](C(=O)N[C@@H](Cc2c[nH]c3ccccc23)C(=O)N[C@@H](CCC(N)=O)C(=O)N[C@H](C(=O)O)C(C)C)NC(=O)[C@@H]2CCCN2C(=O)[C@H](CCCNC(=N)N)NC(=O)[C@H](Cc2ccc(O)cc2)NC(=O)[C@H](C(C)C)NC(=O)[C@H](CCCNC(=N)N)NC(=O)CNC(=O)[C@H](CC(C)C)NC1=O` [hMCH, reference compound]: the “MCH-2R Agonist Activation %” value in test [1] is given as 100%. In test [2], the EC50 came out at 0.0309 µM and the “MCH-1R Agonist Activation %” value was 100%.
For the compound `CSCC[C@@H]1NC(=O)[C@@H](NC(=O)[C@H](CCCNC(=N)N)NC(C)=O)CSSC[C@@H](C(N)=O)NC(=O)CCCCNC(=O)CCCCNC(=O)[C@H](Cc2ccc(O)cc2)NC(=O)[C@H](C(C)C)NC(=O)[C@H](CCCNC(=N)N)NC(=O)[C@H]2CCCN2C(=O)[C@H](CC(C)C)NC1=O` [SEQ. ID. NO. 28] (Ac-RCML[dP]RVY[Ava][Ava]C-NH2; disulfide 2-11 (inferred); C-terminus assumed), in test [1], the EC50 was greater than 10 µM and the “MCH-2R Agonist Activation %” value stood at 7%. Moreover, the IC50 in test [3] was 0.7 µM.
